Structures can show the parent of a compound that is named as a salt.
Columns and labels:
[1] = biological target: Full-length PRMT5 enzyme co-expressed with His6-MEP50 (Homo sapiens (Human), UniProt O14744); test: PRMT5 Biochemical Assay; details: histone H4 derived peptide substrate 1 μM, 1 μM S-Adenosyl methionine, 4 hours at 37 degree Celsius, Transcreener EPIGEN fluorescence polarisation
Method: Compounds of the invention may be tested for in vitro activity in the following assay:
A histone H4 derived peptide is used as substrate (amino acid sequence: […]NH2). Full-length PRMT5 enzyme (NCBI Reference sequence NP_006100.2) was co-expressed with His6-MEP50 in insect cells and purified via Nickel immobilized metal affinity and gel filtration chromatography (“the enzyme”).
The 6 μL reactions are run in Greiner brand black 384-well low volume assay plates. All reactions contained assay buffer (phosphate buffered saline, 0.01% (v/v) Tween-20, 0.01% (w/v) albumin from chicken egg white, 1 mM Dithiothreitol, 1 μM peptide substrate, 1 μM S-Adenosyl methionine, and 15 ng/reaction enzyme, with the enzyme being omitted from negative control reactions. Compounds were added in a volume of 100 nL from dilution series prepared in DMSO, positive and negative control reactions receiving the same volume DMSO without compound. The plates were sealed with adhesive seals and incubated for 4 hours at 37 degree Celsius. Reaction progress was measured using the Transcreener™ EPIGEN methyltransferase assay (BellBrook Labs, Madison, Wis.) as recommended by the manufacturer. To each reaction 2 μL detection mix were added, containing coupling enzymes, fluorescence polarisation tracer, and AMP antibody. Plates were incubated for 90 minutes before being read on a PerkinElmer EnVision™ plate reader in fluorescence polarisation mode. IC50 values were obtained from the raw readings by calculating percent inhibition (% I) for each reaction relative to controls on the same plate (% I=(I−CN)/(CP−CN) where CN/CP are the averages of the negative/positive reactions, respectively), then fitting the % I data vs. compound concentration [I] to % I=(A+((B−A)/(1+((C/[I])^D)))) where A is the lower asymptote, B is the upper asymptote, C is the IC50 value, and D is the slope.

TE11 cells = test: PRMT5 Biomarker Assay (symmetrical dimethylation of arginine, Histone H4 Arginine 3); format: cell-based; details: Homo sapiens, TE-11; TE11 cell line, 72 hours incubation, Di-Methyl Histone H4 Arginine 3 level, high content imaging
Method: Compounds of the invention may be tested for potency to inhibit symmetrical dimethylation of arginine in the following assay:
The cell line TE11 was seeded at a density of 6,000 cells per well in 96 well optical quality tissue culture plates in DME medium and 10% foetal bovine serum, and allowed to adhere for 5 hours under standard culture conditions (37 degree Celsius, 5% CO2). Compound dilutions prepared in DMSO were added to the medium, with negative control wells reserved for treatment with DMSO only and maximum inhibition controls receiving a potent PRMT5 inhibitor compound at 1 μM concentration. After incubation for 72 hours, the cells were fixed with 3.7% formaldehyde in PBS for 30 minutes at room temperature, washed with phosphate buffer saline and blocked with Odyssey blocking buffer (LI-COR, Lincoln, Nebr.). Rabbit anti-Di-Methyl Histone H4 Arginine 3 specific antibody (Epigentek) in Odyssey blocking buffer was added and incubated for 14 hours at 4 degree Celsius. […] Plates were washed and read on a PerkinElmer Envision 2103 in fluorescence intensity scanning mode (24 scans across the well area). […] Using a Columbus image analysis pipeline, individual nuclei were located by Hoechst 33342 stain and the methylation level was calculated from the Alexa647-related intensity in the same area. […]

Chain of Full-length PRMT5 enzyme co-expressed with His6-MEP50 (O14744 whole entry): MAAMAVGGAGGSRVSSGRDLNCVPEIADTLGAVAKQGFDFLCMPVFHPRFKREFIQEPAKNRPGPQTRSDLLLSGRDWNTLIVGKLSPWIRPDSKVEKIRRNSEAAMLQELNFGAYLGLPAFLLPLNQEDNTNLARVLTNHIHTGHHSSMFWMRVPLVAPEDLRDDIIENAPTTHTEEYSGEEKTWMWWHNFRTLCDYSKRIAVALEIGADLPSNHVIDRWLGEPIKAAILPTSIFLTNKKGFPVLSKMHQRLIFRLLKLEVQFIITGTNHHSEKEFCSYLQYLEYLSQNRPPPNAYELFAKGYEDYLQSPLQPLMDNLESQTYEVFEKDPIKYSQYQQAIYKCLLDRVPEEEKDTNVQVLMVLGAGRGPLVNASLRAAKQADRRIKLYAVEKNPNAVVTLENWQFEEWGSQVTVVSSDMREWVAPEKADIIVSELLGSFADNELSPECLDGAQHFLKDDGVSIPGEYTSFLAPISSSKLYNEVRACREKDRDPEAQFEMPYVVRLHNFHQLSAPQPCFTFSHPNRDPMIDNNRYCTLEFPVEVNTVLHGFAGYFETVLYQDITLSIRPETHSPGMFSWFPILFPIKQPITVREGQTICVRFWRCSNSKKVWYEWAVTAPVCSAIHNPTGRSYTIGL
Chain of Full-length PRMT5 enzyme co-expressed with His6-MEP50 (Q9BQA1 whole entry partner): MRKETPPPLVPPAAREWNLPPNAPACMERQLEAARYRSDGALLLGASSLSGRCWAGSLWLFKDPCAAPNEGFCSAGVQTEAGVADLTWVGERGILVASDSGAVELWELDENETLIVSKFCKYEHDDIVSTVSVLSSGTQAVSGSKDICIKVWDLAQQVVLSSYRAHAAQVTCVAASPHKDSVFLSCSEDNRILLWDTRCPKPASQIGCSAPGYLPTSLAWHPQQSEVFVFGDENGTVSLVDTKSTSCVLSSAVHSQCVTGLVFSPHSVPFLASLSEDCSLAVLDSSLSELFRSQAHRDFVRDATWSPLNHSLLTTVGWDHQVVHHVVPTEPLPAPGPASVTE

Compound: O=C(c1ccc2c(=O)n(C[C@@H](O)[C@@H]3Cc4ccccc4CN3)ccc2c1)N1C2CCC1COC2 [Example 1, 6-(3-Oxa-8-azabicyclo[3.2.1]octane-8-carbonyl)-2-((R)-2-hydroxy-2-((S)-1,2,3,4-tetrahydroisoquinolin-3-yl)ethyl)isoquinolin-1(2H)-one hydrochloride]
- IC50 [1]: 533 nM
- IC50 (TE11 cells): 430 nM

Compound: Cc1nn(C[C@@H](O)[C@@H]2Cc3ccccc3CN2)c(=O)c2ccccc12 [Example 2, 2-((R)-2-Hydroxy-2-((S)-1,2,3,4-tetrahydroisoquinolin-3-yl)ethyl)-4-methylphthalazin-1(2H)-one hydrochloride]
- IC50 [1]: 7320 nM

Compound: CCc1nn(C[C@@H](O)[C@@H]2Cc3ccccc3CN2)c(=O)c2ccc(C(=O)N3C4CCC3COC4)cc12 [Example 3, 6-(3-Oxa-8-azabicyclo[3.2.1]octane-8-carbonyl)-4-ethyl-2-((R)-2-hydroxy-2-((S)-1,2,3,4-tetrahydroisoquinolin-3-yl)ethyl)phthalazin-1(2H)-one hydrochloride]
- IC50 [1]: 39 nM
- IC50 (TE11 cells): 1 nM
